Data: patent US7655395B2, “Isolation and use of ryanodine receptors” (E.I. du Pont de Nemours and Company, priority 2002, dated 2010)

What was measured:
[1] = target: T1, recombinant Drosophila melanogaster ryanodine receptors (expressed in Sf9 cells) (Drosophila melanogaster, UniProt Q24498); type: cell-based; conditions: receptor expressed in Sf9 cells
T1 construct: expressed in transfected cells
Procedure: The Spodoptera frugiperda cell line Sf9 used for transfection studies, was maintained in Sf-900 II SFM medium (Invitrogen Life Technologies™, Carlsbad, Calif.) in T-75 flasks incubated at 27° C. It is understood that those skilled in the art might choose alternative cell types such as the Spodoptera frugiperda cell line Sf21 or the Drosophila cell line S2. For the purpose of general handling and propagation, cells were suspended through scraping or agitation and a volume of cell suspension was added to each well of a poly-L-lysine coated 96-well, glass-bottom plate so as to provide 70-80% confluence. Cells were maintained in an incubator at 27° C. until testing.
SF900-II media was used to bring the final volume in the dish to 2 ml and the cells were incubated at 27 degrees C. for 21 h. Following the incubation the media was aspirated from the dish and replaced with 1 ml of SF900-II media pre-warmed to 27 degrees C.
The transient transfection was carried out following an InsectSelect BSD System manual (Invitrogen Life Technologies™, Carlsbad, Calif.). […] The transfection was accomplished by adding the transfection solution drop-wise to the dish and incubating 4 h at room temperature with gentle rocking. […]
(§1) Several drops of a suspension of recombinant Spodoptera frugiperda cell line, Sf9, transiently expressing insect ryanodine receptors were placed on a poly-L-lysine-coated coverslip and allowed to attach. Cells were then rinsed in physiological saline having the following composition (mM): NaCl 130; KCl 5.4; MgCl2 1.2; CaCl2 1.0; NaHCO3 4.2; NaH2P04 7.3; Glucose 10; Sucrose 63; MES 20; pH 6.3. Cells were then bathed in physiological saline containing the calcium sensitive fluoroprobe, Fura-2 AM (2 μM), and Pluronic F127 (0.002%) for 30 min. Cells were rinsed in standard physiological saline for at least 15 min prior to testing. Testing was conducted in standard physiological saline, as the cell lines are devoid of functional voltage-gated calcium channels.
Cell-attached coverslips were placed in a sealed chamber with physiological saline continuously perfused across the cells using a peristaltic pump. Test compounds solubilized in physiological saline were applied by switching the perfusate source.
(§2) For studies involving the stable recombinant Spodoptera frugiperda cell line, Sf9, (other cell lines could also be used such as Sf21, S2, etc) expressing an insect ryanodine receptor from Drosophila melanogaster, or Heliothis virescens (alternatively receptors from other species such as Myzus persicae, Peregrinus maidis, Aphis gossypii, etc) were grown in T75 (or other appropriate sized) flasks in supplemented Grace's insect medium. Cells were maintained in an incubator at 22° C. until testing. Cells were suspension-loaded with the calcium sensitive fluoroprobe, Fura-2 AM (1-2 μM) and Pluronic F127 (0.002%) in culture medium for 30 minutes under agitation. Cells were then centrifuged and the pellet resuspended in physiological saline having the following composition (mM): NaCl 130; KCl 5.4; MgCl2 1.2; CaCl2 1.0; NaHCO3 4.2; NaH2P04 7.3; Glucose 10; Sucrose 63; MES 20; pH 6.3 at approximately 150,000-200,000 cells per well (96-well plate). After a 30 minute equilibration period the cell plate was tested using a Molecular Devices' FlexStation™ system with dual wavelength excitation (340 and 380 nm) and fluorescence emission measured at 510 nm. Test and control samples were added using integrated fluidics and the intracellular calcium monitored over a 2 minute period.

[2] = system: recombinant Heliothis virescens ryanodine receptor (expressed in Sf9 cells); assay: Calcium release assay, Sf9 cells transiently or stably expressing Heliothis virescens ryanodine receptor (Fura-2); type: cell-based; conditions: for calcium response: Sf9 stably expressing H. virescens ryanodine receptor, FIG. 5
Procedure: SF9 cells were grown at 27 degrees C. in a Corning 125 ml polycarbonate Erlenmeyer flask to a density of 3.1 million cells per ml in SF900-II serum free media (Gibco catalog no. 10902-088, Invitrogen™, Carlsbad, Calif.). One million cells were transferred to one well of a Corning 6-well, flat bottom cell culture dish (Corning Inc., Acton, Mass., catalog no. 3516). SF900-II media was used to bring the final volume in the dish to 2 ml and the cells were incubated at 27 degrees C. for 21 h. Following the incubation the media was aspirated from the dish and replaced with 1 ml of SF900-II media pre-warmed to 27 degrees C.
In the case of the vectors containing the Cre recognition elements, the transfection solution was mixed in a 1.5 ml microfuge tube by combining 5 ug of pHE7 plasmid, 5 ug of pMLS104 Cre plasmid and 0.5 ug of lacZ reporter plasmid, 15 ug of cellfectin reagent (Invitrogen cat. #10362-010) and SF900-II serum free media (Gibco catalog #10902-088, Invitrogen™, Carlsbad, Calif.) in a total volume of 500 ul. The solution was incubated for 1 hour at room temperature just prior to the transfection.
The transfection was accomplished by adding the transfection solution drop-wise to the dish and incubating 4 h at room temperature with gentle rocking. After the 4 h incubation the media was replaced with 2 ml of SF900-II media pre-warmed to 27 degrees C. and the cells were incubated 3 days at 27 degrees C.
as §1, with “Testing was conducted in standard physiological saline, as the cell lines are devoid of functional voltage-gated calcium channels.” left out
For studies involving the stable recombinant Spodoptera frugiperda cell line, Sf9, (other cell lines could also be used such as Sf21, S2, etc) expressing an insect ryanodine receptor from Drosophila melanogaster, or Heliothis virescens (alternatively receptors from other species such as Myzus persicae, Peregrinus maidis, Aphis gossypii, etc) were grown in T75 (or other appropriate sized) flasks in supplemented Grace's insect medium. […] After a 30 minute equilibration period the cell plate was tested using a Molecular Devices' FlexStation™ system with dual wavelength excitation (340 and 380 nm) and fluorescence emission measured at 510 nm. […]

[3] = system: control cells without DNA / wild-type Sf9 cells; assay: Calcium response in control Sf9 cells (without DNA, lipid only, non-transfected, wild type); type: cell-based, Spodoptera frugiperda
Description: as §1
Imaging studies were conducted using a Nikon Diaphot microscope with a 40× oil immersion objective (NA 1.3) Image acquisition and processing was performed using the MetaFluor™ imaging system from Universal Imaging Corporation (West Chester, Pa.) Calcium calibration was carried out using the Grynkiewicz equation with a dissociation constant (Kd) of 145 nM for Fura-2 (Grynkiewicz et al., 1985). Cell-attached coverslips were placed in a sealed chamber with physiological saline continuously perfused across the cells using a peristaltic pump. Test compounds solubilized in physiological saline were applied by switching the perfusate source.
as §2

Row | SMILES | Calcium Release Threshold (nM) D. melanogaster [1] | calcium response ([2]; Compound 14 1 μM) | calcium response ([2]; caffeine 10 mM) | cytosolic [Ca2+] response ([2]; caffeine 10 mM, Sf9 transiently expressing H. virescens ryanodine receptor, 72 hr post-transfection, FIG. 4) | calcium response in control cells without DNA ([3]; caffeine 10 mM) | caffeine dose response, calcium mobilization ([3]; wild-type Sf9 cells (Sf9-WT), FlexStation, FIG. 6)
1 | CNC(=O)c1cc(Cl)cc(C)c1NC(=O)c1cc(Br)nn1-c1ncccc1Cl [Cpd 14] | <300 nM | calcium responses elicited |  |  |  | 
2 | Cn1c(=O)c2c(ncn2C)n(C)c1=O [Caffeine, reference compound] |  |  | calcium responses elicited | increase in cytosolic [Ca^2+] | No significant calcium responses | insensitive
